The test system of the assay is MV-4-11 cells. Description: Gene expression microarray analysis (Affymetrix PrimeView) and GSEA. The assay is classed as cell-based, human. On the set-up: RFU PODN (11730768_x_at) / Fold change /veh PODN (11730768_x_at) / RFU LINC00158 (11744669_a_at) / Fold change /veh LINC00158 (11744669_a_at) / RFU DUSP10 (11751237_a_at) / Fold change /veh DUSP10 (11751237_a_at) / RFU ID3 (11757404_x_at) / Fold change /veh ID3 (11757404_x_at) / RFU PLEKHG5 (11737974_s_at) / Fold change /veh PLEKHG5 (11737974_s_at) / RFU LRRC4B (11730491_at) / Fold change /veh LRRC4B (11730491_at) / RFU GIMAP4 (11747438_a_at) / Fold change /veh GIMAP4 (11747438_a_at) / RFU KRT8 (11758183_x_at) / Fold change /veh KRT8 (11758183_x_at) / RFU CNN1 (11734310_a_at) / Fold change /veh CNN1 (11734310_a_at) / RFU VPS37D (11726825_at) / Fold change /veh VPS37D (11726825_at) / RFU C10orf10 (11716522_x_at) / Fold change /veh C10orf10 (11716522_x_at) / RFU KIR2DL2 /// KIR2DL4 /// KIR2DL5A /// KIR2DL5B /// KIR2DS1 /// KIR2DS2 /// KIR2DS3 /// KIR2DS4 /// KIR3DL3 /// KIR3DL3 /// KIR3DS1 (11738374_at) / Fold change /veh KIR2DL2 /// KIR2DL4 /// KIR2DL5A /// KIR2DL5B /// KIR2DS1 /// KIR2DS2 /// KIR2DS3 /// KIR2DS4 /// KIR3DL3 /// KIR3DL3 /// KIR3DS1 (11738374_at) / RFU C1QL1 (11718748_at) / Fold change /veh C1QL1 (11718748_at) / RFU TMPRSS4 (11747572_a_at) / Fold change /veh TMPRSS4 (11747572_a_at) / RFU HAMP (11756126_x_at) / Fold change /veh HAMP (11756126_x_at) / RFU RNFT2 (11725882_a_at) / Fold change /veh RNFT2 (11725882_a_at) / RFU NR4A2 (11747474_a_at) / Fold change /veh NR4A2 (11747474_a_at) / RFU ABCC12 (11746883_a_at) / Fold change /veh ABCC12 (11746883_a_at) / RFU TMEM136 (11760407_x_at) / Fold change /veh TMEM136 (11760407_x_at) / RFU CLDN22 /// WWC2 (11732394_at) / Fold change /veh CLDN22 /// WWC2 (11732394_at) / RFU HLA-DPB1 (11760878_x_at) / Fold change /veh HLA-DPB1 (11760878_x_at) / RFU SPINT1 (11716480_a_at) / Fold change /veh SPINT1 (11716480_a_at) / RFU GAP43 (11754022_s_at) / Fold change /veh GAP43 (11754022_s_at) / RFU A4GNT (11735810_at) / Fold change /veh A4GNT (11735810_at) / RFU PRB3 (11715151_x_at) / Fold change /veh PRB3 (11715151_x_at) / RFU TUBB4B (11761932_at) / Fold change /veh TUBB4B (11761932_at) / RFU CAPN14 (11732068_a_at) / Fold change /veh CAPN14 (11732068_a_at) / RFU TMCC2 (11721928_a_at) / Fold change /veh TMCC2 (11721928_a_at) / RFU IRGQ (11745062_a_at) / Fold change /veh IRGQ (11745062_a_at) / RFU FAM174B (11720279_a_at) / Fold change /veh FAM174B (11720279_a_at) / RFU TMPRSS4 (11748680_a_at) / Fold change /veh TMPRSS4 (11748680_a_at) / RFU FAM212B (11763350_a_at) / Fold change /veh FAM212B (11763350_a_at) / RFU PLEKHG5 (11743358_a_at) / Fold change /veh PLEKHG5 (11743358_a_at) / RFU ZSCAN30 (11745921_a_at) / Fold change /veh ZSCAN30 (11745921_a_at) / RFU CMKLR1 (11741424_a_at) / Fold change /veh CMKLR1 (11741424_a_at) / RFU LOC101060620 /// MAPK8IP1 (11723275_at) / Fold change /veh LOC101060620 /// MAPK8IP1 (11723275_at) / RFU SPTSSB (11747773_x_at) / Fold change /veh SPTSSB (11747773_x_at) / RFU PRSS12 (11739890_at) / Fold change /veh PRSS12 (11739890_at) / RFU BIN1 (11741810_x_at) / Fold change /veh BIN1 (11741810_x_at) / RFU WNT11 (11732464_a_at) / Fold change /veh WNT11 (11732464_a_at) / RFU C10orf10 (11716521_a_at) / Fold change /veh C10orf10 (11716521_a_at) / RFU C5orf56 (11738089_at) / Fold change /veh C5orf56 (11738089_at) / RFU CYB561 (11721691_x_at) / Fold change /veh CYB561 (11721691_x_at) / RFU ANKRD19P (11752326_a_at) / Fold change /veh ANKRD19P (11752326_a_at) / RFU OR2T12 /// OR2T33 /// OR2T8 (11738714_s_at) / Fold change /veh OR2T12 /// OR2T33 /// OR2T8 (11738714_s_at) / RFU VCAN (11748164_a_at) / Fold change /veh VCAN (11748164_a_at) / RFU JSRP1 (11732532_at) / Fold change /veh JSRP1 (11732532_at) / RFU KRTAP10-11 (11738290_x_at) / Fold change /veh KRTAP10-11 (11738290_x_at) / RFU MYO3A (11730013_a_at) / Fold change /veh MYO3A (11730013_a_at) / RFU EBF3 (11725865_a_at) / Fold change /veh EBF3 (11725865_a_at) / RFU CAMK2N1 (11719241_x_at) / Fold change /veh CAMK2N1 (11719241_x_at) / RFU C5orf56 (11738088_a_at) / Fold change /veh C5orf56 (11738088_a_at) / RFU OLFML3 (11715873_a_at) / Fold change /veh OLFML3 (11715873_a_at) / RFU LOC100653217 /// NTM (11731650_a_at) / Fold change /veh LOC100653217 /// NTM (11731650_a_at) / RFU MAPK11 (11762145_a_at) / Fold change /veh MAPK11 (11762145_a_at) / RFU FIZ1 (11724087_x_at) / Fold change /veh FIZ1 (11724087_x_at) / RFU OASL (11726364_x_at) / Fold change /veh OASL (11726364_x_at) / RFU SOX15 (11748057_x_at) / Fold change /veh SOX15 (11748057_x_at) / RFU CD79A (11719716_a_at) / Fold change /veh CD79A (11719716_a_at) / RFU HIST1H1D (11736915_at) / Fold change /veh HIST1H1D (11736915_at) / RFU CASKIN2 (11723855_a_at) / Fold change /veh CASKIN2 (11723855_a_at) / RFU LOC730098 (11760151_x_at) / Fold change /veh LOC730098 (11760151_x_at) / RFU OR4N2 (11742367_at) / Fold change /veh OR4N2 (11742367_at) / RFU PRRT2 (11749266_a_at) / Fold change /veh PRRT2 (11749266_a_at) / RFU SNX32 (11753110_a_at) / Fold change /veh SNX32 (11753110_a_at) / RFU CDHR5 (11726645_a_at) / Fold change /veh CDHR5 (11726645_a_at) / RFU RCAN1 (11760418_a_at) / Fold change /veh RCAN1 (11760418_a_at) / RFU FAM167A (11723789_a_at) / Fold change /veh FAM167A (11723789_a_at) / RFU FAM26E (11764081_at) / Fold change /veh FAM26E (11764081_at) / RFU ISYNA1 (11749810_s_at) / Fold change /veh ISYNA1 (11749810_s_at) / RFU ACY1 (11761880_at) / Fold change /veh ACY1 (11761880_at) / RFU 11764098_at / Fold change /veh 11764098_at / RFU SAMD14 (11745864_x_at) / Fold change /veh SAMD14 (11745864_x_at) / RFU NPB (11741838_a_at) / Fold change /veh NPB (11741838_a_at) / RFU TMPRSS6 (11731388_a_at) / Fold change /veh TMPRSS6 (11731388_a_at) / RFU KRTAP10-2 (11738614_at) / Fold change /veh KRTAP10-2 (11738614_at) / RFU ARHGAP8 /// PRR5-ARHGAP8 (11727945_x_at) / Fold change /veh ARHGAP8 /// PRR5-ARHGAP8 (11727945_x_at) / RFU KRTAP5-7 /// NADSYN1 (11734609_at) / Fold change /veh KRTAP5-7 /// NADSYN1 (11734609_at) / RFU RASL12 (11751679_a_at) / Fold change /veh RASL12 (11751679_a_at) / RFU CDKN2B (11736163_a_at) / Fold change /veh CDKN2B (11736163_a_at) / RFU PRF1 (11729649_at) / Fold change /veh PRF1 (11729649_at) / RFU, ZNF638 /// ZNF638-IT1 / Fold change vs veh, ZNF638 /// ZNF638-IT1 / RFU, PANK3 / Fold change vs veh, PANK3 / RFU, SH3YL1 / Fold change vs veh, SH3YL1 / RFU, ZEB2 / Fold change vs veh, ZEB2 / RFU, NRIP1 / Fold change vs veh, NRIP1 / RFU, PTTG1IP / Fold change vs veh, PTTG1IP / RFU, CAPN2 / Fold change vs veh, CAPN2 / RFU, MED14 / Fold change vs veh, MED14 / RFU, SNORA58 / Fold change vs veh, SNORA58 / RFU, C1orf63 / Fold change vs veh, C1orf63 / RFU, LRRFIP1 / Fold change vs veh, LRRFIP1 / RFU, NDUFAF7 / Fold change vs veh, NDUFAF7 / RFU, SLC12A2 / Fold change vs veh, SLC12A2 / RFU, IBTK / Fold change vs veh, IBTK / RFU, ESF1 / Fold change vs veh, ESF1 / Fold change vs veh, TMEM50B / RFU, TAOK1 / Fold change vs veh, TAOK1 / RFU, ACBD3 / Fold change vs veh, ACBD3 / RFU, TMA16 / Fold change vs veh, TMA16 / RFU, RWDD3 / Fold change vs veh, RWDD3 / RFU, BCAT1 / Fold change vs veh, BCAT1 / RFU, EDEM3 / Fold change vs veh, EDEM3 / RFU, TMEM33 / Fold change vs veh, TMEM33 / RFU, WDR75 / Fold change vs veh, WDR75 / RFU, AHCTF1 / Fold change vs veh, AHCTF1 / RFU, TFRC / Fold change vs veh, TFRC / RFU, ZDHHC17 / Fold change vs veh, ZDHHC17 / RFU, NOM1 / Fold change vs veh, NOM1 / RFU, ARL8B / Fold change vs veh, ARL8B / RFU, ZBTB11 / Fold change vs veh, ZBTB11 / RFU, TAMM41 / Fold change vs veh, TAMM41 / RFU, KIAA1704 /// LOC100996395 / Fold change vs veh, KIAA1704 /// LOC100996395 / RFU, ING1 / Fold change vs veh, ING1 / RFU, TRMT61B / Fold change vs veh, TRMT61B / RFU, FUBP3 / Fold change vs veh, FUBP3 / RFU, TP53 / Fold change vs veh, TP53 / RFU, TNKS2 / Fold change vs veh, TNKS2 / RFU, ZFP14 / Fold change vs veh, ZFP14 / RFU, ACTR2 / Fold change vs veh, ACTR2 / RFU, PPP3R1 / Fold change vs veh, PPP3R1 / RFU, PIK3R1 / Fold change vs veh, PIK3R1 / RFU, HNRNPA1 / Fold change vs veh, HNRNPA1 / RFU, RNF170 / Fold change vs veh, RNF170 / RFU, ZNF28 / Fold change vs veh, ZNF28 / RFU, RNGTT / Fold change vs veh, RNGTT / RFU, OGT / Fold change vs veh, OGT / RFU, BRD1 / Fold change vs veh, BRD1 / RFU, MARS / Fold change vs veh, MARS / RFU, ZNF655 / Fold change vs veh, ZNF655 / RFU, FAHD1 / Fold change vs veh, FAHD1 / RFU, BDP1 / Fold change vs veh, BDP1 / RFU, LRRCC1 / Fold change vs veh, LRRCC1 / RFU, ARID1A / Fold change vs veh, ARID1A / RFU, ZNF146 / Fold change vs veh, ZNF146 / RFU, ZNF330 / Fold change vs veh, ZNF330 / RFU, GPN3 / Fold change vs veh, GPN3 / RFU, C9orf123 / Fold change vs veh, C9orf123 / RFU, N4BP2L2 / Fold change vs veh, N4BP2L2 / RFU, ARFIP1 / Fold change vs veh, ARFIP1 / RFU, FAM179B / Fold change vs veh, FAM179B / RFU, BCL10 / Fold change vs veh, BCL10 / RFU, UHRF1BP1L / Fold change vs veh, UHRF1BP1L / RFU, BET1 / Fold change vs veh, BET1 / RFU, CNOT2 / Fold change vs veh, CNOT2 / RFU, ZNF268 / Fold change vs veh, ZNF268 / Fold change vs veh, ZNF507 / RFU, DGCR2 / Fold change vs veh, DGCR2 / RFU, WDSUB1 / Fold change vs veh, WDSUB1 / Fold change vs veh, HSP90B1 /// MIR3652 / RFU, ADSS / Fold change vs veh, ADSS / RFU, GK / Fold change vs veh, GK / RFU, ZNF148 / Fold change vs veh, ZNF148 / RFU, TAF9 / Fold change vs veh, TAF9 / RFU, SLC1A5 / Fold change vs veh, SLC1A5 / RFU, SLMO2 / Fold change vs veh, SLMO2 / RFU, ABCC4 / Fold change vs veh, ABCC4 / RFU, LOC101060439 /// RAP1B / Fold change vs veh, LOC101060439 /// RAP1B / RFU, RFX7 / Fold change vs veh, RFX7 / RFU, GTPBP10 / Fold change vs veh, GTPBP10 / RFU, CNEP1R1 / Fold change vs veh, CNEP1R1 / RFU, BIVM-ERCC5 /// ERCC5 / Fold change vs veh, BIVM-ERCC5 /// ERCC5 / RFU, ILF3 / Fold change vs veh, ILF3 / RFU 11762660_at / Fold change /veh 11762660_at / RFU VCAN (11757783_s_at) / Fold change /veh VCAN (11757783_s_at) / RFU DDX43 (11728927_at) / Fold change /veh DDX43 (11728927_at) / RFU KRT8 (11758188_x_at) / Fold change /veh KRT8 (11758188_x_at) / RFU NKD1 (11759106_at) / Fold change /veh NKD1 (11759106_at) / RFU SRD5A1 (11742802_a_at) / Fold change /veh SRD5A1 (11742802_a_at) / RFU TPSAB1 /// TPSB2 (11721975_s_at) / Fold change /veh TPSAB1 /// TPSB2 (11721975_s_at) / RFU GSTM3 (11746129_a_at) / Fold change /veh GSTM3 (11746129_a_at) / RFU IL23R (11737362_x_at) / Fold change /veh IL23R (11737362_x_at) / RFU TMEM51 (11727254_a_at) / Fold change /veh TMEM51 (11727254_a_at) / RFU PIWIL2 (11732686_x_at) / Fold change /veh PIWIL2 (11732686_x_at) / RFU ORM1 (11744905_x_at) / Fold change /veh ORM1 (11744905_x_at) / RFU CCDC152 (11743942_at) / Fold change /veh CCDC152 (11743942_at) / RFU ECM1 (11717891_a_at) / Fold change /veh ECM1 (11717891_a_at) / RFU IL23R (11748794_a_at) / Fold change /veh IL23R (11748794_a_at) / RFU TNFAIP8L3 (11732012_x_at) / Fold change /veh TNFAIP8L3 (11732012_x_at) / RFU MBOAT4 (11741988_at) / Fold change /veh MBOAT4 (11741988_at) / RFU 11764193_at / Fold change /veh 11764193_at / RFU TMEM53 (11763286_at) / Fold change /veh TMEM53 (11763286_at) / RFU MAGEB2 (11727129_at) / Fold change /veh MAGEB2 (11727129_at) / RFU TMEM200A (11744735_a_at) / Fold change /veh TMEM200A (11744735_a_at) / RFU CCDC152 (11751479_a_at) / Fold change /veh CCDC152 (11751479_a_at) / RFU FAM211A (11726209_a_at) / Fold change /veh FAM211A (11726209_a_at) / RFU RGS16 (11746705_a_at) / Fold change /veh RGS16 (11746705_a_at) / RFU VCAN (11755009_s_at) / Fold change /veh VCAN (11755009_s_at) / RFU RHOB (11743442_s_at) / Fold change /veh RHOB (11743442_s_at) / RFU RGS16 (11720943_a_at) / Fold change /veh RGS16 (11720943_a_at) / RFU RGS16 (11720944_at) / Fold change /veh RGS16 (11720944_at) / RFU, VPS4B / Fold change vs veh, VPS4B / RFU, CREB1 / Fold change vs veh, CREB1 / RFU, DNAJC13 / Fold change vs veh, DNAJC13 / RFU, GNAQ / Fold change vs veh, GNAQ / RFU, CDK5R1 / Fold change vs veh, CDK5R1 / RFU, ZRANB3 / Fold change vs veh, ZRANB3 / RFU, CUL4A / Fold change vs veh, CUL4A / RFU, CCNY / Fold change vs veh, CCNY / RFU, UFL1 / Fold change vs veh, UFL1 / RFU, COG3 / Fold change vs veh, COG3 / RFU, DIAPH2 / Fold change vs veh, DIAPH2 / RFU, SKA2 / Fold change vs veh, SKA2 / RFU, AFF3 / Fold change vs veh, AFF3 / RFU, LMF1 / Fold change vs veh, LMF1 / RFU, IPO11 / Fold change vs veh, IPO11 / RFU, DFFB / Fold change vs veh, DFFB / RFU, FOXP1 / Fold change vs veh, FOXP1 / RFU, CARD8 / Fold change vs veh, CARD8 / RFU, STRN3 / Fold change vs veh, STRN3 / RFU, ADK / Fold change vs veh, ADK / RFU, RASSF2 / Fold change vs veh, RASSF2 / RFU, WIPF1 / Fold change vs veh, WIPF1 / RFU, LARP1B / Fold change vs veh, LARP1B / RFU, RASA1 / Fold change vs veh, RASA1 / RFU, RB1 / Fold change vs veh, RB1 / RFU, PPFIA1 / Fold change vs veh, PPFIA1 / RFU, MAT2A / Fold change vs veh, MAT2A / RFU, CCT5 / Fold change vs veh, CCT5 / RFU, WDR92 / Fold change vs veh, WDR92 / RFU, CUX1 / Fold change vs veh, CUX1 / RFU, TTC7A / Fold change vs veh, TTC7A / RFU, TMEM135 / Fold change vs veh, TMEM135 / RFU, DEPTOR / Fold change vs veh, DEPTOR / RFU, CPM / Fold change vs veh, CPM / RFU, DNAJB6 / Fold change vs veh, DNAJB6 / RFU, CACNA2D3 / Fold change vs veh, CACNA2D3 / RFU, DTX4 / Fold change vs veh, DTX4 / RFU, TFCP2 / Fold change vs veh, TFCP2 / RFU, GMCL1 /// GMCL1P1 / Fold change vs veh, GMCL1 /// GMCL1P1 / RFU, AEBP2 / Fold change vs veh, AEBP2 / RFU, SNHG1 /// SNORD22 /// SNORD25 /// SNORD26 /// SNORD27 /// SNORD28 /// SNORD29 /// SNORD31 / Fold change vs veh, SNHG1 /// SNORD22 /// SNORD25 /// SNORD26 /// SNORD27 /// SNORD28 /// SNORD29 /// SNORD31 / Fold change (Aza/veh), C12orf56 (ProbeSet 11735607_a_at) / Fold change (ACY-1035/veh), C12orf56 (ProbeSet 11735607_a_at) / Fold change (Aza/veh), FGFR1OP (ProbeSet 11751329_s_at) / Fold change (ACY-1035/veh), FGFR1OP (ProbeSet 11751329_s_at) / Fold change (Aza/veh), VPS36 (ProbeSet 11739960_a_at) / Fold change (ACY-1035/veh), VPS36 (ProbeSet 11739960_a_at) / RFU SYPL1 (11715823_x_at) / Fold change /veh SYPL1 (11715823_x_at) / RFU IGFBP7 (11715501_s_at) / Fold change /veh IGFBP7 (11715501_s_at) / RFU REEP3 (11722064_at) / Fold change /veh REEP3 (11722064_at) / RFU IGLL1 (11728026_x_at) / Fold change /veh IGLL1 (11728026_x_at): dose or concentration left out as unconfirmed. To be noted: ProbeSet 11716865_a_at; LIST B.

Molecules are shown by their SMILES.

Take `Nc1ccc(-c2cccs2)cc1NC(=O)c1ccc2c(c1)cc(C1CC1)n2CCN1CCOCC1` [ACY-1035]: the “Fold change vs veh, SLC1A5” value is listed as 0.85.

The values above are taken from publication PMC5218480 (PLoS ONE, 2017).
